Results reported in US9034886B2, “4-aminoquinazoline derivatives and uses thereof” (Shanghai Institute of Pharmaceutical Industry, priority 2011, dated 2015).

Columns and labels:
[1] = test system: A549 human lung cancer cells; assay: In vitro anti-proliferative effect, CCK-8 method, A549; format: cell-based; conditions: Homo sapiens, A549
Procedure, shortened: (§1)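 Each compound is applied at 100 μM and at 10 μM. Inhibition percentages come from the CCK-8 method.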

HDAC1 = HDAC1 (Homo sapiens (Human), UniProt Q13547); assay: In vitro inhibition of subtype HDAC1 (HDAC1 Inhibitor Drug Screening Kit, Biovision); format: biochemical; conditions: for inhibition at 1 µM / inhibition at 10 µM: read-out: % Inhibition towards HDAC1; for inhibitory activity against HDAC1 compared with MS-275: both concentrations 10 μM and 1 μM
Experimental: The in vitro inhibitory activities of the compounds towards the subtype HDAC1 were tested according to the instructions in the HDAC1 Inhibitor Drug Screening Kit (Biovision).
(1) The compounds to be tested were each individually prepared as 10 μM and 1 μM solutions and their inhibitory activities at these concentrations were tested.
Each dilution sample was placed in two wells and the enzyme inhibition IC50 of the compound was tested.

[2] = test system: PC-3 human prostate cancer; assay: In vitro anti-proliferative effect, CCK-8 method, PC-3; format: cell-based; conditions: Homo sapiens; for inhibition at 10 µM / inhibition at 100 µM: PC-3 cell strain, CCK-8 method; for inhibition at 10 µM: compound at 10 μM; for inhibition at 100 µM: compound at 100 μM
Procedure, shortened: as §1

[3] = Maximum tolerance dose through intragastrical administration; format: in vivo; conditions: mice, administrated intragastrically
Experimental: Forty ICR mice, half female and half male, weighing […] were divided into four groups, 10 mice in each group. After the mice were fasted for 6 h, the compound to be tested was administrated intragastrically to each group at a volume of 0.3 ml/10 g by using a sterile plastic syringe. General physical signs and the deaths of the animals were record at 1, 2 and 4 h after the administration. The animals were then observed continuously for 14 days and their weights, physical signs and deaths were observed and recorded every day. Dead animals were dissected to see if there was any visible pathological change in the animal's viscera and pathological examination was performed on suspicious tissues and organs. A part of the experimental results is as follows.

[4] = test system: Jurkat E6-1 human T-cell lymphoma; assay: In vitro anti-proliferative effect, CCK-8 method, Jurkat E6-1; format: cell-based; conditions: Homo sapiens, Jurkat E6.1
Procedure, shortened: as §1

[5] = test system: Hep3B2.1-7 human liver cancer cells; assay: In vitro anti-proliferative effect, CCK-8 method, Hep3B; format: cell-based; conditions: Homo sapiens; for inhibition at 10 µM / inhibition at 100 µM: Hep3B cell strain, CCK-8 method; for inhibition at 10 µM: compound at 10 μM; for inhibition at 100 µM: compound at 100 μM
Procedure, shortened: as §1

HDACs = assay: In vitro inhibition of HDACs (HDAC Inhibitor Drug Screening Kit, Biovision K340-100); format: biochemical; conditions: for inhibitory activity on HDACs compared with MS-275: concentrations of 2 mM, 200 μM, and 40 μM
Experimental: The in vitro inhibitory activities of the compounds towards HDACs were tested according to the instructions in the HDAC Inhibitor Drug Screening Kit (Biovision/Catalog #K340-100).
(1) The compounds to be tested were each individually prepared as 2 mM, 200 μM and 40 μM solutions and their inhibitory activities at these concentrations were tested.

[6] = test system: PANC-1 human pancreatic cancer cells; assay: In vitro anti-proliferative effect, CCK-8 method, PANC-1; format: cell-based; conditions: Homo sapiens, PANC-1
Procedure, shortened: as §1

[7] = test system: MDA-MB-435s human breast cancer cells; assay: In vitro anti-proliferative effect, CCK-8 method, MDA-MB-435s; format: cell-based; conditions: Homo sapiens, MDA-MB-435S
Procedure, shortened: as §1

[8] = test system: Colo320 human colorectal cancer cell lines; assay: In vitro anti-proliferative effect, CCK-8 method, Colo320; format: cell-based; conditions: Homo sapiens, COLO 320; for inhibition at 10 µM / inhibition at 100 µM: Colo320 cell strain, CCK-8 method; for inhibition at 10 µM: compound at 10 μM; for inhibition at 100 µM: compound at 100 μM
Procedure, shortened: as §1

[9] = test system: K562 human chronic myelogenous leukemia cells; assay: In vitro anti-proliferative effect, CCK-8 method, K562; format: cell-based; conditions: Homo sapiens, K562
Procedure, shortened: (§2)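 Percent growth inhibition, measured with CCK-8, in Hut78 and K562 leukemia cells at two compound concentrations, 10 μM and 100 μM.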

[10] = test system: Hut78 T lymphocytic leukemia cells; assay: In vitro anti-proliferative effect, CCK-8 method, Hut78; format: cell-based; conditions: Homo sapiens, HuT78; for inhibition at 10 µM / inhibition at 100 µM: read-out: Hut-78 (inhibition %)
Procedure, shortened: as §2

Sequence of HDAC1 (Q13547 whole entry): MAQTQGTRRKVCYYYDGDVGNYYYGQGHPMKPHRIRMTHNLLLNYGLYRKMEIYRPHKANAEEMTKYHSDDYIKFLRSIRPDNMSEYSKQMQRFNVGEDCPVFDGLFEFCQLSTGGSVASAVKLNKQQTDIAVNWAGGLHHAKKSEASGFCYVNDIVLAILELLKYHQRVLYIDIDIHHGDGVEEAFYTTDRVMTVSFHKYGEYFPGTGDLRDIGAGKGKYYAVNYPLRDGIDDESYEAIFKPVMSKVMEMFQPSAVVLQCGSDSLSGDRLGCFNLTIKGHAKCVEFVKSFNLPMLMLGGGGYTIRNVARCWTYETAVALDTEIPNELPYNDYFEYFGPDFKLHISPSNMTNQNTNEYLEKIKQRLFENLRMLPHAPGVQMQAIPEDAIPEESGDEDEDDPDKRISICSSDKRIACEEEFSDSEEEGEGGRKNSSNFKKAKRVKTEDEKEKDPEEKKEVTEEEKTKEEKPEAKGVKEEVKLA

Row | SMILES | inhibition at 10 µM [1] [%] | inhibition at 100 µM [1] [%] | inhibition at 1 µM (HDAC1) [%] | inhibition at 10 µM (HDAC1) [%] | inhibition at 10 µM [2] [%] | inhibition at 100 µM [2] [%] | maximum tolerance dose [3] | inhibition at 10 µM [4] [%] | inhibition at 100 µM [4] [%] | inhibition at 10 µM [5] [%] | inhibition at 100 µM [5] [%] | IC50 (HDACs) [nM] | Inhibition percentage (%) towards HDACs (HDACs; 40 μM) [%] | Inhibition percentage (%) towards HDACs (HDACs; 200 μM) [%] | Inhibition percentage (%) towards HDACs (HDACs; 2 mM) [%] | inhibition at 10 µM [6] [%] | inhibition at 100 µM [6] [%] | inhibition at 10 µM [7] [%] | inhibition at 100 µM [7] [%] | inhibition at 10 µM [8] [%] | other results
1 | Nc1ccc(F)cc1NC(=O)c1ccc(Nc2ncnc3c(F)cccc23)cc1 [Compound V-14, N-(2-amino-5-fluorophenyl)-4-(8-fluoroquinazoline-4-amino)benzamide] | -17.6 | 72.2 | 1.48 | 28.9 | 22.9 | 84.4 | over 2000 mg/kg | 23.8 | 96.5 | 7.2 | 79.3 | 3770 | 46.8 | 67.1 | 94.8 | -2.8 | 15.7 | 19.5 | 63.9 | -14.3 | IC50 [1]: 5090 nM; IC50 [2]: 3570 nM; IC50 [4]: 1390 nM; IC50 ([5]; Hep3B): 16000 nM; inhibitory activity according to in vitro IC50 value against HDACs compared with MS-275 (HDACs): better inhibitory activities than MS-275; inhibitory activity on HDACs compared with MS-275 (HDACs): significantly stronger inhibitory activities than MS-275; IC50 [8]: 27000 nM; inhibition at 100 µM [8]: 82.7%; IC50 [9]: 2810 nM; inhibition at 10 µM [9]: 34%; inhibition at 100 µM [9]: 88.7%; IC50 [10]: 55.8 nM; inhibition at 10 µM [10]: 22%; inhibition at 100 µM [10]: 91.1%
2 | COc1cc2ncnc(Nc3ccc(C(=O)Nc4ccccc4N)cc3)c2cc1OCCCN1CCOCC1 [Compound V-17, N-(2-aminophenyl)-4-[7-methoxy-6-(3-morpholinylpropoxy)quinazoline-4-amino]benzamide] | 29.8 | 67.9 | 53.9 | 76.2 | 41.8 | 67.1 | over 5000 mg/kg | 20.3 | 80.2 | 18.4 | 45.7 | 1720 | 39.7 | 60.7 | 86.7 | 12 | 25.1 | 32.5 | 73.3 | 4.9 | IC50 (HDAC1): 735 nM; inhibitory activity against HDAC1 compared with MS-275 (HDAC1): superior to that of MS-275; inhibitory activity according to in vitro IC50 value against HDACs compared with MS-275 (HDACs): better inhibitory activities than MS-275; inhibitory activity on HDACs compared with MS-275 (HDACs): significantly stronger inhibitory activities than MS-275; inhibition at 100 µM [8]: 28.9%; inhibition at 10 µM [9]: 33.6%; inhibition at 100 µM [9]: 72.4%; inhibition at 10 µM [10]: 73.4%; inhibition at 100 µM [10]: 93.5%
3 | COc1cc2ncnc(Nc3ccc(C(=O)Nc4cc(F)ccc4N)cc3)c2cc1OCCCN1CCOCC1 [Compound V-18, N-(2-amino-5-fluorophenyl)-4-[7-methoxy-6-(3-morpholinylpropoxy)quinazoline-4-amino]benzamide] | 9.5 | 79.1 | 59.8 | 80.8 | 45.2 | 72.2 | over 2000 mg/kg | 76.6 | 95.7 | 13.8 | 75.1 | 1020 | 30.4 | 56.8 | 66.0 | 0.9 | 23.9 | 22.7 | 81.4 | 7.7 | IC50 (HDAC1): 330 nM; inhibitory activity against HDAC1 compared with MS-275 (HDAC1): superior to that of MS-275; inhibition at 100 µM [8]: 56.3%; inhibition at 10 µM [9]: 58.5%; inhibition at 100 µM [9]: 87.5%; inhibition at 10 µM [10]: 39.9%; inhibition at 100 µM [10]: 82.3%
